# According to patent US20020065314A1, “COMPOSITIONS AND METHOD FOR STIMULATING HAIR GROWTH” (priority 1995, published 2002):
# Entries after “also recorded” stand apart in the source; their conditions may differ.
# Key:
# [1] = test system: C57BL/KsJ db/+ mice and 6 other strains of mice; assay: Single topical application to shaved dorsum of mice: cutaneous changes and hair growth; format: in vivo, mouse
# Text: The dorsal aspect of C57BL/KsJ db/+ female mice was shaved and a single topical dose of n-butyl cyanoacrylate (formulated as Nexaband^R Liquid) was applied. […] At this early stage some of these new aggregates form laminae and appear to constitute neo-angiogenesis. At day 1 post application, the gross appearance of inflammation was still apparent, and there was microscopic evidence for the formation of a lumen from an aggregate of cells in the subcutaneous layer. […] These changes were only observed in the treated area. […] Between eight and 12 days post application, hair follicles and new hair were present at the sites of application; the remainder of the shaved area remained hairless. Epidermal and dermal thickening and new hair follicle development in treated skin were pronounced until days 10-20 post application (FIGS. 3A-3B), at which time large mature hair follicles traversed the entire thickness of the dermis and subcutaneous layer (FIG. 3C). Hair follicle density reached a maximum level at about days 20-30 post application, at which time the epithelium and connective tissue elements began to return to their pre-treatment appearance (FIGS. 4A-4B).
# (§1) At the gross level, the hair growth in the shaved treated area occurs at 8-12 days and reaches full length at about 14-20 days post treatment, however, the remainder of the shaved untreated area remains hairless and the hair follicles small (in telogen (resting) phase)(5A-5B). The response of hair growth to the n-butyl cyanoacrylate stimulus is very similar in 6 other strains of mice (C57BL/KsJ +/+, C57BL/KsJ db/db, Balb/cBYj +/+, Balb/cBYj nu/+, HRS/J hr/+, and RHJ/LeJ hr^rh-j/+) (FIGS. 6A-6C) and Sprague Dawley rats (FIGS. 7A-7B). The hair growth rate in the fastest growth period (at about 10-15 days post treatment) reaches 1 mm per day. This is entirely consistent with the microscopically observed stimulation of hair follicles following treatment.
# Sprague Dawley rats = assay: Single topical application, hair growth in rats; format: in vivo, rat
# Text: as §1
# NIH/3T3 fibroblasts = assay: Fibroblast cell proliferation assay with extracts of treated skin; format: cell-based
# Protocol: A single topical application of 20 mg of n-butyl cyanoacrylate was made to an area of shaved skin on the dorsum of strain C57BL/KsJ db/+ mice. At days 10 and 20 post-treatment, skin samples were excised from treated areas. Skin tissue was frozen in dry ice, minced, homogenized in ice-cold PBS, and centrifuged at 15,000 g for 30 minutes at 4° C. The protein concentration of supernatants was adjusted to 1.0 mg/ml by the BioRad assay procedure (BioRad Laboratories, Richmond, Calif.). Skin samples from untreated areas of the same strain were harvested and processed identically. Mouse serum albumin was prepared at a concentration of 1.0 mg/ml in PBS as a control. An aliquot of each supernatant extract was fractionated according to size with a nominal 30 kilo Dalton (kDa) cutoff, and the low molecular weight fraction (≦30 kDa) was included in the fibroblast cell proliferation assay, as follows.
# The supernatant extracts from treated and untreated skin samples, and mouse serum albumin control, were added to a quartet of wells in a 96 well plate, and 2-fold serially diluted 11 times. NIH/3T3 fibroblasts (ex American Type Culture Collection, Rockville, Md.) were harvested at about 80% confluence, seeded into each well at a density of 5,000 cells per well, and supplemented with serum-free assay medium (QBSF 56, Quality Biological Inc., Gaithersburg, Md.). Cell proliferation was determined according to the protocol of the CellTitre 96 Non-Radioactive Cell Proliferation Assay (Promega, Madison, Wis.).
# C57BL/KsJ db/+ mice = assay: Inhibition of n-butyl cyanoacrylate-stimulated hair growth by neutralizing antibodies; format: in vivo, mouse; details: day 14, sites 2 and 3, 10 μl per site
# Protocol: Forty mice of strain C57BL/KsJ db/+ eight weeks old were divided into four equal groups (A-D). The dorsal aspect of the mice were shaved, and five different sites on the dorsum were designated (sites 1-5). Each site was 5-6 mm^2. Animals of group A were treated topically at sites 1, 2 & 3 with n-butyl cyanoacrylate only (10 μl per site) formulated as Nexaband^R Liquid. Animals of group B were treated topically at sites 1, 2 & 3 with the same dose of n-butyl cyanoacrylate, but sites 1 and 3 subsequently received subcutaneous injections of either anti-TGF-β1 neutralizing antibody (1 μg per g of body weight) in PBS/0.1% BSA (at site 1), or PBS/0.1% BSA as a matched control (at site 3). Group C animals were treated as for Group B except that anti-EGF neutralizing antibody was injected at site 1 instead of anti-TGF-pi. […] Group D animals were shaved only and received no treatment.
# Hair regeneration was documented by macroscopic observations supported by serial photographs of treatment sites. Histological observations were made on skin biopsies taken at frequent intervals ranging from 6 hours to 21 days post-treatment.
# [2] = C57BL/KsJ db/+, post application
smiles,measurement,setting,value
C=C(C#N)C(=O)OCCCC [n-butyl cyanoacrylate],response of hair growth compared with C57BL/KsJ db/+,[1]; 6 other strains of mice and Sprague Dawley rats,very similar
same,hair growth on dorsum (photograph),"[1]; Balb/cBYj nu/+, 19 days post application",hair growth appears in a circle pattern
same,"hair follicle number, maximum increase treated vs untreated areas",[1]; C57BL/KsJ db/+,about 2 fold
same,histology of treated skin,"[1]; C57BL/KsJ db/+, 16 days following application",large mature hair follicles traversing the entire thickness of the skin
same,hair growth on dorsum (photograph),"[1]; C57BL/KsJ db/+, 17 days post application",triangle pattern of hair growth
same,histology of treated skin vs adjacent untreated area,"[1]; C57BL/KsJ db/+, 19 days after topical treatment",high concentration of large mature hair follicles
same,"scanning electron micrograph, treated vs adjacent untreated area","[1]; C57BL/KsJ db/+, 23 days after treatment",higher density of hairs and deeper hair roots in the treated area
same,histology of treated skin,"[1]; C57BL/KsJ db/+, day 3 post application","multilayered epidermis, thickened dermis, and epidermal peg elongation; also recorded: evidence of trichogenesis was clearly seen at the treatment site"
same,histology of treated skin,"[1]; C57BL/KsJ db/+, day 10 post application",increase in the number of mature hair follicles; also recorded: new epithelial pegs had developed into mature hair follicles
same,"thickness of the dermis layer, increase treated vs untreated areas","[1]; C57BL/KsJ db/+, days 16-20 post treatment",1.5 fold
same,"thickness of the dermis layer, treated vs untreated areas","[1]; C57BL/KsJ db/+, first day after treatment",about 1.3 fold
same,time of maximum hair follicle density,[1]; [2],20 to 30 days
same,time until which epidermal and dermal thickening and new hair follicle development were pronounced,[1]; [2],10 to 20 days
same,time at which dermis returns to normal thickness,"[1]; C57BL/KsJ db/+, post treatment",about 70 days
same,time at which epidermis returns to normal thickness,"[1]; C57BL/KsJ db/+, post treatment",about 40 days
same,time at which hair reaches full length,"[1]; C57BL/KsJ db/+, post treatment",14 to 20 days
same,"thickness of the epidermis layer, maximum increase in treated areas vs maximum level in untreated areas","[1]; C57BL/KsJ db/+, topical",about 2 fold
same,early change of treated skin,"[1]; C57BL/KsJ db/+, within six hours of application",slight thickening of the treated skin
same,time at which new hair follicle formation occurs in treated area,[1]; after treatment,2 to 3 days
same,hair growth rate in the fastest growth period,[1]; at about 10-15 days post treatment,1 mm per day
same,hair growth on dorsum (photograph),"[1]; diabetic C57BL/KsJ db/db, 27 days post application",hair growth appears in a rectangle pattern
same,"hair follicle number, maximum in treated vs untreated areas",[1]; diabetic strain C57BL/KsJ db/db,about 4 fold
same,time hair regrowth in treated areas remains unchanged while shaved untreated areas are hairless,"[1]; genetically healing-impaired diabetic mice, post treatment",more than 216 days
same,time over which no shedding of induced hair has been found,"[1]; mice, post treatment",> 335 days
same,length of new hairs over those in adjacent untreated area,"[1]; mouse, in vivo",1-2 mm
same,localization of the hair growth response,"[1]; mouse, in vivo",completely localized to the area where the stimulator is applied
same,time at which hair growth occurs (is seen) in shaved treated area,"[1]; post treatment, single topical dose",8 to 12 days
same,hair regrowth after repeated shaving,"[1]; single application, area subsequently shaved three times at 20-day intervals",the hair keeps regrowing in the treated areas
same,"histology, hair follicle density treated vs untreated area",Sprague Dawley rats; Sprague Dawley rat,much higher density of hair follicles in treated area
same,hair growth on dorsum (photograph),"Sprague Dawley rats; Sprague Dawley rat, 23 days post application",hair growth appears as a rectangle pattern
same,time over which no shedding of induced hair has been found,"Sprague Dawley rats; rats, post treatment",over 210 days
same,activity of extract from skin harvested at 20 days post-treatment vs 10 days,NIH/3T3 fibroblasts,more active than the extract from skin harvested at 10 days post-treatment
same,activity of protein extracts of treated skin vs extract of untreated skin,"NIH/3T3 fibroblasts; skin treated topically with 20 mg, harvested days 10 and 20",more active in stimulating proliferation of NIH/3T3 cells
same,activity of low molecular weight fraction (30 KDa or less) of skin extract,NIH/3T3 fibroblasts; treated and untreated skin,no discernible effect on cell proliferation; also recorded: filtration step removes stimulation
same,stimulation of hair growth at sites treated with n-butyl cyanoacrylate alone,C57BL/KsJ db/+ mice,clearly evident; also recorded: new hair growth was present
